For this test, the target named is human ACC2 (Homo sapiens (Human), UniProt O00763). Kind of test: ACC2 assay (spectrophotometric 384 well assay, NADH-linked kinetic method). The test is classed as biochemical. Particulars: hACC2 construct lacking 128 N-terminal amino acids, 25° C., 340 nm. Put shortly: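 Baculovirus/insect-cell human ACC2, anion-exchange purified; ADP formation coupled to pyruvate kinase/lactate dehydrogenase, NADH loss followed at 340 nm, 25° C, 15 min. Final 200 μM NADH and acetyl-CoA, 500 uM ATP; vehicle and no-acetyl-CoA wells set 100% and 0%.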
Sequence of human ACC2 (O00763 129-2458): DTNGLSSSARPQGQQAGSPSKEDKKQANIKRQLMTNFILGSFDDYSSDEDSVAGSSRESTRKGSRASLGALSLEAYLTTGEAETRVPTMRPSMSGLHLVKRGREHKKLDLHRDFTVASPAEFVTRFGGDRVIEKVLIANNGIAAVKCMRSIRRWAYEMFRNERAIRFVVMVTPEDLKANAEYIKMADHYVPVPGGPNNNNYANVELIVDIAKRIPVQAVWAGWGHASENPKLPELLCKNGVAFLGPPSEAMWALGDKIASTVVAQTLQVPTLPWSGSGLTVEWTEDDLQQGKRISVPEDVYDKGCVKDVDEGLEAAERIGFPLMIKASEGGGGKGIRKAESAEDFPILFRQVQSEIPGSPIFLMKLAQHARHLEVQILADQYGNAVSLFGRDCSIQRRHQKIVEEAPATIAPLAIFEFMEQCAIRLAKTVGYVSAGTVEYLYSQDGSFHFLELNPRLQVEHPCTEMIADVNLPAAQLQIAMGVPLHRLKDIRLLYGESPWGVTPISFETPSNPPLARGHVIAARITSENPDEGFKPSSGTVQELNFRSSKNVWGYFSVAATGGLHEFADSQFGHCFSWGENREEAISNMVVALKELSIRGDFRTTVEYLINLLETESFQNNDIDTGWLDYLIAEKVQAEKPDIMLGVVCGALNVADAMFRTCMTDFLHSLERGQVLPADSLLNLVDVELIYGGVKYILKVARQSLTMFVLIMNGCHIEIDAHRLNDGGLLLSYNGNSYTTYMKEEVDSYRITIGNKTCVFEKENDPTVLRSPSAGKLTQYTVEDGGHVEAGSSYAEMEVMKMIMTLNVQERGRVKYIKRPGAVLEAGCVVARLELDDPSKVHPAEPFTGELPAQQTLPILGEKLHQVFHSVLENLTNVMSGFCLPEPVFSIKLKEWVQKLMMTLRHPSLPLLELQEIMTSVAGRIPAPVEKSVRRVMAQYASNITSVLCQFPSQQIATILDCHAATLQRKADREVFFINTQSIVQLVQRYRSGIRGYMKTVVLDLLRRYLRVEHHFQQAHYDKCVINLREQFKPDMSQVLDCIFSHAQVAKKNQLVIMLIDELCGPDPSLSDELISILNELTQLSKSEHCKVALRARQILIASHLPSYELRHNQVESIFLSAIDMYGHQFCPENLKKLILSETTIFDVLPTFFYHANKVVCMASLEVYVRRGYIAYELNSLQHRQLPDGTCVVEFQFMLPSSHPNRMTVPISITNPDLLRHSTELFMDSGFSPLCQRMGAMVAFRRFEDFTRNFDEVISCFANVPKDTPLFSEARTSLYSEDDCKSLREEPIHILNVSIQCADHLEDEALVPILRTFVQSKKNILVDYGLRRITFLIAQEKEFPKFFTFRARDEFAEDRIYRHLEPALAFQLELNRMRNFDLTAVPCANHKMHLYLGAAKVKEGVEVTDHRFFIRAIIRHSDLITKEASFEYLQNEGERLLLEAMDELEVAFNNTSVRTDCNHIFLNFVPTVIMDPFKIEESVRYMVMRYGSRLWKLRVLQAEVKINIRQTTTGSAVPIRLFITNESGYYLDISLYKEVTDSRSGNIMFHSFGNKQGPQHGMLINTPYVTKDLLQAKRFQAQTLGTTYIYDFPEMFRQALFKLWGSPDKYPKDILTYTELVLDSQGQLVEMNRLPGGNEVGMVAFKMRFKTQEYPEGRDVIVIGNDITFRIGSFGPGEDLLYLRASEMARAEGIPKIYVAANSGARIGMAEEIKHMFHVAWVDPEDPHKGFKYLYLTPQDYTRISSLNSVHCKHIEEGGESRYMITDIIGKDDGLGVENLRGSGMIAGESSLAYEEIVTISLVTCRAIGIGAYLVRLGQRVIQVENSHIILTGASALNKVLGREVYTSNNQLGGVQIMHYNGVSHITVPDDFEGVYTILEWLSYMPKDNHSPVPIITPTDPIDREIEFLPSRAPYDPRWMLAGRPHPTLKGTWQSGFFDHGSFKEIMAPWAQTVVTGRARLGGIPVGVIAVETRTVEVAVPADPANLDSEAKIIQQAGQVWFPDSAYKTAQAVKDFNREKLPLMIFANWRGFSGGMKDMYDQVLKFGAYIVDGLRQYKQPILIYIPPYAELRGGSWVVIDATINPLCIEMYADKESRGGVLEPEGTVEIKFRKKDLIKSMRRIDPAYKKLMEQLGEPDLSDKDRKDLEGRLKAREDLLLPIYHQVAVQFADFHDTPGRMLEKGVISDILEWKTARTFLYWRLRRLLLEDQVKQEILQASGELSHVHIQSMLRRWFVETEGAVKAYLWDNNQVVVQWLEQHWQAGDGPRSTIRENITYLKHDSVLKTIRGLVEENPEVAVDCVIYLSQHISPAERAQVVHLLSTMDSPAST

Compound `CC(=O)Nc1cc(C(=O)N[C@@H](C)c2ccc(OC3CCN(c4ccc(OCC5CC5)cc4)C3)cc2)on1` (stereo partly shown) [Example 8.2] had an IC50 of 365 nM. Next, `C[C@H](NC(=O)c1ccno1)c1ccc(O[C@@H]2CCN(c3ccc(OCC4CC4)cc3)C2)cc1` [Example 8.3]: 61 nM; `C[C@H](NC(=O)C1CC[C@@H](N)C1)c1ccc(O[C@@H]2CCN(c3ccc(OCC4CC4)cc3)C2)cc1` (stereo partly shown) [Example 9]: 1750 nM; `CCOc1ccc(N2CC[C@@H](Oc3ccc([C@H](C)NC(=O)c4sc(NC(=O)CO)nc4C)cc3)C2)cc1` [Example 10, N—((S)-1-(4-((R)-1-(4-Ethoxyphenyl)pyrrolidin-3-yloxy)phenyl)-ethyl)-2-(2-hydroxyacetamido)-4-methylthiazole-5-carboxamide]: 163 nM.

In general, IC50 refers to the concentration that gives 50% inhibition. Low values mean higher potency, high ones lower potency.

Source of the values: US9169205B2, “Pyrrolidine derivatives, pharmaceutical compositions and uses thereof” (Boehringer Ingelheim International GmbH, priority 2012, dated 2015).
